From ChEMBL document CHEMBL3507680, “University of Dundee, Gates Library screen for HepG2 cell viability” come the findings set out here.

This data set in a line: Human HepG2 cell viability assay in 384 well format. The class given is toxicity, cell-based. Further details: dose 125 nL, time 70.5 hour; cytotoxicity at 70.5 h: concentration not given beside the values. Conditions: HepG2 cells, read-out: Inhibition.
For the molecule `C[C@@H]1CN(Cc2nc(Cc3ccccc3F)no2)C[C@H](C)O1`, the cytotoxicity at 70.5 h was determined as 32.5%.
Under `Cc1nc(C2CCNCC2)cc(N(C)Cc2cc3cc(F)ccc3[nH]2)n1` stands -1.29%; under `COc1ncc(-c2cc(NCCN(C)C)nc3[nH]ccc23)c(OC)n1`, 15.3%; under `Cc1[nH]c2c(F)cccc2c1CC(=O)NCCCc1csc(N)n1`, 5.37%.
Under `CC(C)c1cc(C2CCN(Cc3cc(F)cc(F)c3)CC2)[nH]n1` stands -1.12%; under `COCC(=O)N1C[C@H]2CNC[C@@]2(C(=O)NCc2snnc2C)C1`, -6.27%; under `CC(C)[C@H]1CN(Cc2ccccn2)C[C@@H]1NC(=O)CC1CCC1`, -3.45%.
The value for `CC(C)(O)CCc1ccc(C(=O)N2CCN(CCS(C)(=O)=O)CC2)cc1` was 0.886%; that for `COCC(=O)N1CC[C@]2(O)CCN(Cc3ccsc3)C[C@@H]2C1` was -7.01%; that for `CCSCCNc1nc2c(s1)c(C)nn2C` was -14.5%.
As to `Cc1ccc2nc(CN(C)Cc3[nH]nc4c3CCC4)[nH]c2c1C`, the cytotoxicity at 70.5 h came to 6.49%.
The value for `Cc1cnc(N)nc1NCCSCc1[nH]cnc1C` was -1.94%; that for `CN1CCC(Cc2noc(-c3cccc(Oc4ncccn4)c3)n2)CC1` was -2%; that for `CCC1(CO)CCN(C(=O)c2cc(COc3ccccc3F)[nH]n2)CC1` was 15.1%.
In the case of `CN(CCO)Cc1nnc(C2CCN(C(=O)CN3CCCC3)CC2)n1C`, the cytotoxicity at 70.5 h was -0.947%.
The value for `Nc1ncccc1CN1C[C@@H](C(=O)O)[C@H](c2cccc(F)c2)C1` was 1.75%; that for `N#Cc1cccnc1N1CCN(S(=O)(=O)NCc2ccccc2)CC1` was -18.9%.
The value for `Cc1ccc(-c2ccnc(NCC3(N(C)C)CCOCC3)n2)c(C)n1` was -4%; that for `CN(C)CCN1CC2(CCCN(c3ncc(Cl)cc3F)C2)CCC1=O` (stereo not given) was -5.68%.
Regarding `CCCN1CCCC2(CCN(Cc3cncn3C3CCCCC3)C2)C1=O` (stereo not given), the cytotoxicity at 70.5 h is -7.64%.
As to `Cc1ccc(NC2(C(=O)NCCCc3c(C)n[nH]c3C)CCCC2)cc1`, the cytotoxicity at 70.5 h was -5.19%.
The value for `CC(=O)c1ccc(N2CCC3(CC2)CC(=O)N(C)C3)nc1` was 4.13%; that for `Cc1nc(N)nc(C)c1CC(=O)NCc1ccc2nonc2c1` was -9.8%.
Under `Cc1ncsc1CCN(C)C(=O)CN1CCCCC1=O` stands 12.5%; under `O=C(CCC(=O)N1CCC(OCc2cccnc2)CC1)c1ccccc1`, -1.13%.
`COc1ccc(C(=O)N2C[C@@H](CN3CCCCC3)[C@@H](CO)C2)cc1Cl`: the cytotoxicity at 70.5 h was -1.81%.
The value for `CSc1ccc2cc(CN(C)CCO)c(=O)[nH]c2c1` was -16.3%.
Under `COc1cc(OC)cc(-c2cccc3c2OC(CN)C3)c1` (stereo not given) stands 24.7%.
On to `O=C(c1ccccc1)N1CCN(CC2CCOc3ccccc3C2)CC1` (stereo not given), for which the cytotoxicity at 70.5 h is -2.76%.
Under `CCC(c1nc(C(C)C)nn1-c1ccncc1C)n1cccn1` (stereo not given) stands -9.34%; under `CN(C)c1ccc(C(=O)N2C[C@@H](CN3CCCCC3)[C@@H](CO)C2)cc1`, -4.9%; under `Cc1cccc(C(C(=O)NCc2csc(-c3ncccn3)n2)N(C)C)c1` (stereo not given), -0.325%.
The value for `O=C1OCCN1Cc1ncnn1Cc1c(F)cccc1Cl` was 11.9%; that for `Cc1ncc(C(=O)N2CCCN(Cc3ccccc3F)CC2)c(O)n1` was -12.9%.
The value for `Cc1ccc(OCC2CCCN(C(=O)CN3CCOCC3)C2)cc1` (stereo not given) was 2.89%; that for `CNc1ncc(CN(C)C(=O)c2cccc(Cn3cccn3)c2)cn1` was -6.97%.
Consider `COc1cc(N2CCC(c3nccn3Cc3cccnc3)CC2)ncn1`, for which the cytotoxicity at 70.5 h is -5.38%.
Turning to `Cc1ccc(-c2nccn2-c2ccc(OC3CCN(C)CC3)cc2)o1`, the cytotoxicity at 70.5 h is 17%.
The value for `CCCC(Nc1nc(COCC)nc2c1CCNCC2)c1nccn1C` (stereo not given) was 2.1%.
Under `COc1ccc(-n2nc(C3CC3)nc2CCn2cnnn2)cc1` stands 26.8%.
Under `O=C(CCOc1ccccc1)N1CCCC(c2ncc[nH]2)C1` (stereo not given) stands -20.2%.
Take `Cn1ccnc1CN(CCO)C(=O)c1cnc2ccccc2c1`: the cytotoxicity at 70.5 h turned out to be 0.182%.
The value for `CC[C@@]1(O)CCN(C(=O)c2ccc(OC(F)F)cc2)C[C@H]1O` was -4.22%; that for `CC(=O)NCC1CCC2(CCN(c3nccc(C4CCCC4)n3)CC2)O1` (stereo not given) was -7.84%.
The value for `CCN(Cc1cnn(CC)c1)C(=O)Cn1c(=O)ccc2ccccc21` was -5.92%; that for `O=C1CC2(CCN(C(=O)c3ccc4c(c3)CCCO4)C2)C(=O)N1` (stereo not given) was 2.37%; that for `Cc1cc(C)c2nc(CN3CCC(N4CCOCC4)CC3)cc(O)c2c1` was -0.693%.
The value for `NC(=O)c1csc(N2C[C@@H](CN3CCOCC3)[C@@H](CO)C2)n1` was -2.9%; that for `O=C(CCNc1ncc2c(n1)CCN2c1ccccc1)N1CCCC1` was -9.59%; that for `O=C(NCc1nc(C2CCCCC2)no1)C1CC(=O)N(C2CCCC2)C1` (stereo not given) was -0.128%.
As to `COc1ccccc1Oc1ncccc1CNC(=O)C1(C)CCCNC1` (stereo not given), the cytotoxicity at 70.5 h is -1.4%.
As to `CCc1ccccc1OC1CN(CC2CCOC2)C1` (stereo not given), the cytotoxicity at 70.5 h was found to be 29.4%.
The value for `CCOCc1nc2c(c(NCc3cc(C)on3)n1)CCN(C(C)=O)CC2` was -7.96%; that for `CSc1cccc(CNC(=O)[C@H]2CNC[C@H](C(=O)N3CCOCC3)C2)c1` was -2.2%.
Take `COCCOC(=O)N1C[C@H]2CC[C@@H]1CN(C1Cc3ccccc3C1)C2`: the cytotoxicity at 70.5 h is -3.17%.
The value for `Fc1cccc(C2(CNC3CCCNC3)CCOCC2)c1` (stereo not given) was -1.46%.
Under `CS(=O)(=O)N1CCCCC1CCc1ccc(O)cc1` (stereo not given) stands 16.6%.
The value for `C[C@@H]1CN(CC(C)(C)N2CCOCC2)C[C@@]1(O)C1CC1` was -6.35%; that for `CC(C1CCN(Cc2ccc(OC(F)F)cc2)CC1)N1CCOCC1` (stereo not given) was -17.4%.
As to `COc1ccc(NC(=O)N2CCC3(CC2)NC(=O)CC3C(=O)O)c(C)c1` (stereo not given), the cytotoxicity at 70.5 h is -1.09%.
Regarding `Cc1ccsc1-c1nccn1CCN1CCCCC1CO` (stereo not given), the cytotoxicity at 70.5 h was -4.24%.
The value for `COc1cccc2ccc(N3CCC(O)(C(=O)O)CC3)nc12` was -16.9%.
The value for `Cc1nc(-c2ccncc2)ncc1C(C)NC(=O)CN1CCCCC1` (stereo not given) was -7.41%; that for `CCCNC(=O)N1CCc2ccc(S(=O)(=O)N3CCOCC3)cc2C1` was -16.2%; that for `Cn1ncc(CN2CCc3onc(-c4cccc(F)c4)c3C2)c1C1CC1` was -11.6%.
Under `CCCn1cnnc1CNC(=O)C1COc2c(cccc2OC)C1` (stereo not given) stands -11.4%.
For the molecule `COc1cc(-c2nc3c([nH]2)CCCNC3=O)cc(OC)c1OC`, the cytotoxicity at 70.5 h is -1.49%.
The value for `Cc1nc(NC(=O)NC2CC(=O)N(C)C2)nn1C` (stereo not given) was 7.5%; that for `C[C@@H]1CN(C(=O)CCCN2CCCC2)CC[C@@]1(O)C1CCOCC1` was -3.8%.
On to `CC(C)CN(Cc1ccc(O)c(C(=O)O)c1)Cc1cnn(C)c1`, for which the cytotoxicity at 70.5 h is -1.34%.
